Assay results from paper PMC7003846, “Effects of the ventilatory stimulant, doxapram on human TASK‐3 (KCNK9, K2P9.1) channels and TASK‐1 (KCNK3, K2P3.1) channels” (Acta Physiologica (Oxford, England), 2019).
Where two headings read alike, the source gives them in different places.

Legend:
human TASK-1 = target: T1, human TASK-1 (Homo sapiens, UniProt O14649); assay: Whole-cell patch clamp on tsA201 cells expressing cloned human TASK-1; assay type: cell-based; settings: for inhibition of human TASK-1 current: acute application; for EC50: tsA201 cells, whole-cell patch clamp, room temperature, read-out: EC50, inhibition of human TASK-1 current
T1 construct: expressed in transfected cells; host or cells: tsA201 (modified HEK293), transient transfection, pcDNA3.1+
T1 sequence (O14649 whole entry): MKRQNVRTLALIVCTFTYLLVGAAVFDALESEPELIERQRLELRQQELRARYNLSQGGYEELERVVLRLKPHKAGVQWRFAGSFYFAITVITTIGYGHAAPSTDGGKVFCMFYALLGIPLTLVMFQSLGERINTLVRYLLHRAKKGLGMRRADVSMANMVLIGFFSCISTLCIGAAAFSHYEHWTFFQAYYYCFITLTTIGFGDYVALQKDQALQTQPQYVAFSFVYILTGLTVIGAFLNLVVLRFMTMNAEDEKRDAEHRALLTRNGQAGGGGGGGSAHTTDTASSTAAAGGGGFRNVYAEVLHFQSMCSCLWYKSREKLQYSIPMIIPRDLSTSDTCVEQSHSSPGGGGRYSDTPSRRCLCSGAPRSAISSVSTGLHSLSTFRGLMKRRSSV
Description: (§1) Murine (mur) wild‐type (WT) TASK‐1 (KCNK3, Genbank^TM DQ185133) and WT murTASK‐3 (KCNK9, Genbank^TM AH009585.2) cDNA were cloned into pCS2^+ vector and were a kind gift from William Wisden (Imperial College, UK). Human WT TASK‐1 (Genbank^TM AF006823.1), WT TASK‐3 (Genbank^TM AF212829) and WT TASK‐2 (KCNK5, Genbank^TM AF084830.1) cDNA’s, were cloned into pcDNA3.1^+ vector (Invitrogen) and were a kind gift from Helen Meadows (GlaxoSmithKline).
(§2) All experiments were performed using a modified human embryonic kidney 293 cell line, tsA201 (ECACC; Sigma‐Aldrich), prepared and maintained as previously described.54
(§3) For the electrophysiological experiments, cells were transiently transfected using a modified calcium phosphate protocol, following a process as previously described.54 Vectors cloned with the gene of interest and a similar vector encoding the cDNA for GFP were added to each well at a concentration of 0.5 µg per well, with the exception being for murTASK‐3, where 0.125 µg per well was used.
(§4) Currents were recorded from tsA201 cells transiently transfected with the channel of interest using whole‐cell patch clamp in a voltage clamp configuration and a step‐ramp voltage protocol as previously described.54 Briefly, all experiments were conducted at room temperature (20‐24°C) using an external solution composed of 145 mM of NaCl, 2.5 mM of KCL, 3 mM of MgCl2, 1 mM of CaCl2 and 10 mM of HEPES (pH 7.4, using NaOH) and an intracellular pipette solution composed of 150 mM of KCL, 3 mM of MgCl2, 5 mM of EGTA and 10 mM of HEPES (pH adjusted to 7.4 with KOH). External solution and modulatory compounds were superfused at a rate of 4‐5 mL min^−1. Currents were recorded using an Axopatch 1D patch clamp amplifier (Molecular Devices), filtered at 0.3 kHz, digitized at 1 kHz.
(§5) For analysis of outward current, we measured the current difference between the −80 and −40 mV. The current‐voltage graphs were obtained from the ramp change in voltage between −120 and +20 mV. For each cell, the current amplitude (pA) was normalized to the cell capacitance (pF). The currents obtained were analysed using pCLAMP 10.2 software (Molecular Devices), Microsoft Excel and GraphPad Prism 6 or 7 software. Data were expressed as the mean ± 95% Confidence Intervals (CI), and n represents the number of individual cells. For EC50 calculations, concentration‐response curves were fitted using the Hill equation. Statistical analysis used were one‐way ANOVA with a post‐hoc Dunnett's test or an unpaired/paired Student's t test. Data were considered statistically different if P < .05. The data and statistical analysis comply with the recommendations on experimental design and analysis in pharmacology.55

human TASK-3 = target: T2, human TASK-3 (Homo sapiens, UniProt Q9NPC2); assay: Whole-cell patch clamp on tsA201 cells expressing cloned human TASK-3; assay type: cell-based; settings: for inhibition of human TASK-3 current: acute application; for EC50: tsA201 cells, whole-cell patch clamp, room temperature, read-out: EC50, inhibition of human TASK-3 current
T2 construct: expressed in transfected cells; host or cells: tsA201 (modified HEK293), transient transfection, pcDNA3.1+
T2 sequence (Q9NPC2 whole entry): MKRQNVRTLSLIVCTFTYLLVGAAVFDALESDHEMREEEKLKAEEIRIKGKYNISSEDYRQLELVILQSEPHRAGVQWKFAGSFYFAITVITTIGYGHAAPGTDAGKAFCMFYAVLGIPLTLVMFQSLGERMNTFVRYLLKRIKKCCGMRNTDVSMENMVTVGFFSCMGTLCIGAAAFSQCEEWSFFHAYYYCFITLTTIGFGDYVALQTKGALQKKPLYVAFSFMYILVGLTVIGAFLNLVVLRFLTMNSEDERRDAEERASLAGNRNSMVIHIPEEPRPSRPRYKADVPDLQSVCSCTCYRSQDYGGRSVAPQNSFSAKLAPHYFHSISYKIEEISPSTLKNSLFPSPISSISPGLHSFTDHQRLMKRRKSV
Description: as §1, §2, §3, §4, §5

[1] = opioid challenged rats, intravenous; cited from earlier work
[2] = opioid challenged cynomolgus monkeys, intravenous; cited from earlier work
murTASK-1 = target: T3, murTASK-1 (Mus musculus, UniProt O35111); assay: Whole-cell patch clamp on tsA201 cells expressing cloned mouse TASK-1; assay type: cell-based; settings: 10 µM, acute application
T3 construct: expressed in transfected cells; host or cells: tsA201 (modified HEK293), transient transfection, pCS2+
T3 sequence (O35111 whole entry): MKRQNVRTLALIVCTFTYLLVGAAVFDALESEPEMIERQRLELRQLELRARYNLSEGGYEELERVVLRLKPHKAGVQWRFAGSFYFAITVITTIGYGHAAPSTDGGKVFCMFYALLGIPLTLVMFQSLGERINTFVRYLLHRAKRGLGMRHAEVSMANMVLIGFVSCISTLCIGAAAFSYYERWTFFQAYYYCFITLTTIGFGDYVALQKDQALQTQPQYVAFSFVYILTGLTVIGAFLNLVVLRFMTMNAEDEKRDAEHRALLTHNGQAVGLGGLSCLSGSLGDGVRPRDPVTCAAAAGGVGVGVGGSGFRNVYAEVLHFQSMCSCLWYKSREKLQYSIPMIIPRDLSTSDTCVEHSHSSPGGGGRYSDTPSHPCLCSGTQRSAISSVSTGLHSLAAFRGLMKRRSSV
Description: as §1, §2, §3, §4, §5

murTASK-3 = target: T4, murTASK-3 (Mus musculus, UniProt Q3LS21); assay: Whole-cell patch clamp on tsA201 cells expressing cloned mouse TASK-3; assay type: cell-based; settings: 10 µM, acute application
T4 construct: expressed in transfected cells; host or cells: tsA201 (modified HEK293), transient transfection, pCS2+
T4 sequence (Q3LS21 whole entry): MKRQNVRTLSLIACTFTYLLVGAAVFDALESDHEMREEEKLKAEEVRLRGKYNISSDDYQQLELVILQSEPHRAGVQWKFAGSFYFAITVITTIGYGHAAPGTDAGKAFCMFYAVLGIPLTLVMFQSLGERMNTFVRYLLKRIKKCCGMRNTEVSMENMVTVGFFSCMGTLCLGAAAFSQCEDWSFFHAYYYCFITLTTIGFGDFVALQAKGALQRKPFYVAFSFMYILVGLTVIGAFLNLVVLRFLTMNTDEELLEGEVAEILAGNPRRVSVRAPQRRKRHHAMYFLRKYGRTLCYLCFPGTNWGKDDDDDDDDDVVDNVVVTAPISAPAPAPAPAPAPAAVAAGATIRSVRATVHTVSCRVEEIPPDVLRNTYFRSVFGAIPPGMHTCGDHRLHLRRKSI
Description: as §1, §2, §3, §4, §5

| SMILES | inhibition of human TASK-1 current (human TASK-1; 10 µM) | inhibition of human TASK-1 current (human TASK-1; 100 µM) | inhibition of human TASK-1 current (human TASK-1; 300 µM) | EC50 (human TASK-1) | inhibition of human TASK-3 current (human TASK-3; 10 µM, WT) | inhibition of human TASK-3 current (human TASK-3; 100 µM, WT) | inhibition of human TASK-3 current (human TASK-3; 300 µM) | EC50 (human TASK-3) | effect on minute volume [1] | effect on minute volume [2] | inhibition of human TASK-1 current (human TASK-1; 1 µM) | inhibition of human TASK-1 current (human TASK-1; 3 µM) | inhibition of human TASK-3 current (human TASK-3; 1 µM) | inhibition of human TASK-3 current (human TASK-3; 3 µM) | current inhibition of murTASK-1 (murTASK-1) | current inhibition of murTASK-3 (murTASK-3) |
| --- | --- | --- | --- | --- | --- | --- | --- | --- | --- | --- | --- | --- | --- | --- | --- | --- |
| CCN1CC(CCN2CCOCC2)C(c2ccccc2)(c2ccccc2)C1=O (stereo not shown) [GAL‐053] | 3% | 24% | 47% | ~336 µM | 8% | 35% | 50% | ~286 µM | had no effect | had no effect |  |  |  |  |  |  |
| CCN1CC(CCN2CCOCC2)C(c2ccccc2)(c2ccccc2)C1=O (stereo not shown) [GAL‐054] | 75% |  |  | ~1.6 µM | 79% |  |  | ~1.4 µM | dose‐dependently increased minute volume | dose‐dependently increased minute volume | 45% | 54% | 43% | 66% | 63% | 33% |
